Reference: patent US20050107423A1, “Quinolone antibacterial agents” (priority 2003, published 2005)
In brackets after ≈: the same amount, converted by molar mass.

Columns and labels:
Test in all cases: Antibacterial assay, microtitration MIC (Test A)
Type in all cases: cell-based
E. coli EC-2549 = conditions: Escherichia coli, EC2549, Gram Negative Bacteria; strain EC-2549; read-out: Minimum Inhibitory Concentrations E. coli EC-2549
Procedure: (§1) The compounds of the present invention were tested against an assortment of Gram-negative and Gram-positive organisms using standard microtitration techniques (Cohen et. al., Antimicrob., 1985;28:766; Heifetz, et. al., Antimicrob., 1974;6:124). The results of the evaluation are shown in Tables 1A and B, wherein “-” means no data.

M. catarrhalis BC-3531 = conditions: Moraxella catarrhalis, BC3531, Gram Negative Bacteria; strain BC-3531; read-out: Minimum Inhibitory Concentrations M. catarrhalis BC-3531
Procedure: as §1

H. influenzae HI-3542 = conditions: Haemophilus influenzae, HI3542, Gram Negative Bacteria; strain HI-3542; read-out: Minimum Inhibitory Concentrations H. influenzae HI-3542
Procedure: as §1

MIC (E. coli EC-2549) [µg/mL]	MIC (M. catarrhalis BC-3531) [µg/mL]	MIC (H. influenzae HI-3542) [µg/mL]	Structure (SMILES)
0.25 (≈ 0.621 µM)	0.03 (≈ 0.0745 µM)	0.03 (≈ 0.0745 µM)	COc1c(N2CCC(C3(O)CC3)C2)c(F)cc2c(=O)c(C(=O)O)cn(C3CC3)c12 (stereo not drawn) [drawing 327]
0.5 (≈ 1.16 µM)	0.125 (≈ 0.289 µM)	0.015 (≈ 0.0347 µM)	COc1c(N2CCC(C(O)C3(O)CC3)C2)c(F)cc2c(=O)c(C(=O)O)cn(C3CC3)c12 (stereo not drawn) [drawing 328]
0.5 (≈ 1.17 µM)	0.03 (≈ 0.07 µM)	0.06 (≈ 0.14 µM)	Cc1c(N2CCC(C(O)C(F)(F)F)C2)c(F)cc2c(=O)c(C(=O)O)cn(C3CC3)c12 (stereo not drawn) [drawing 329]
0.125 (≈ 0.281 µM)	0.008 (≈ 0.018 µM)	0.015 (≈ 0.0338 µM)	COc1c(N2CCC(C(O)C(F)(F)F)C2)c(F)cc2c(=O)c(C(=O)O)cn(C3CC3)c12 (stereo not drawn) [drawing 331]
0.06 (≈ 0.134 µM)	0.008 (≈ 0.0179 µM)	0.004 (≈ 0.00894 µM)	Nc1c(F)c(N2CCC(C(O)C(F)(F)F)C2)c(F)c2c1c(=O)c(C(=O)O)cn2C1CC1 (stereo not drawn) [drawing 332]
1 (≈ 1.86 µM)	0.125 (≈ 0.233 µM)	0.06 (≈ 0.112 µM)	Nc1nc(-n2cc(C(=O)O)c(=O)c3cc(F)c(N4CCC(C(O)C(F)(F)F)C4)c(Cl)c32)c(F)cc1F (stereo not drawn) [drawing 333]
0.125 (≈ 0.301 µM)	0.016 (≈ 0.0385 µM)	0.016 (≈ 0.0385 µM)	O=C(O)c1cn(C2CC2)c2nc(N3CCC(C(O)C(F)(F)F)C3)c(F)cc2c1=O (stereo not drawn) [drawing 334]
0.125 (≈ 0.305 µM)	0.03 (≈ 0.0731 µM)	0.015 (≈ 0.0366 µM)	Cc1c(N2CCC(C(F)(F)CO)C2)c(F)cc2c(=O)c(C(=O)O)cn(C3CC3)c12 (stereo not drawn) [drawing 335]
0.125 (≈ 0.295 µM)	0.03 (≈ 0.0707 µM)	0.03 (≈ 0.0707 µM)	Cc1c(N2CCC(C(O)C(C)(F)F)C2)c(F)cc2c(=O)c(C(=O)O)cn(C3CC3)c12 (stereo not drawn) [drawing 336]
1 (≈ 2.47 µM)	0.125 (≈ 0.309 µM)	0.125 (≈ 0.309 µM)	COCC(O)C1CCN(c2c(F)cc3c(=O)c(C(=O)O)cn(C4CC4)c3c2C)C1 (stereo not drawn) [drawing 337]
0.5 (≈ 1.09 µM)	0.06 (≈ 0.131 µM)	0.06 (≈ 0.131 µM)	Cc1c(N2CCC(C(O)(CO)C(F)(F)F)C2)c(F)cc2c(=O)c(C(=O)O)cn(C3CC3)c12 (stereo not drawn) [drawing 338]
0.125 (≈ 0.294 µM)	0.03 (≈ 0.0706 µM)	0.16 (≈ 0.377 µM)	CC(O)(CO)C1CCN(c2c(F)cc3c(=O)c(C(=O)O)cn(C4CC4)c3c2Cl)C1 (stereo not drawn) [drawing 339]
0.125 (≈ 0.265 µM)	0.03 (≈ 0.0635 µM)	0.03 (≈ 0.0635 µM)	COc1c(N2CCC(C)(C(O)CC(F)(F)F)C2)c(F)cc2c(=O)c(C(=O)O)cn(C3CC3)c12 (stereo not drawn) [drawing 374]
0.5 (≈ 1.23 µM)	0.0125 (≈ 0.0308 µM)	0.15 (≈ 0.369 µM)	COc1c(N2CCC(CO)(CO)C2)c(F)cc2c(=O)c(C(=O)O)cn(C3CC3)c12 [drawing 375]
0.5 (≈ 1.11 µM)	0.25 (≈ 0.556 µM)	0.03 (≈ 0.0668 µM)	O=C(O)c1cn(-c2ccc(F)cc2F)c2nc(N3C[C@@H](CO)[C@@H](CO)C3)c(F)cc2c1=O [drawing 379]
0.25 (≈ 0.572 µM)	0.125 (≈ 0.286 µM)	0.008 (≈ 0.0183 µM)	Nc1nc(-n2cc(C(=O)O)c(=O)c3cc(F)c(N4C[C@@H](O)[C@@H](O)C4)nc32)c(F)cc1F [drawing 380]
0.25 (≈ 0.593 µM)	0.125 (≈ 0.297 µM)	0.03 (≈ 0.0712 µM)	COc1c(N2C[C@@H](CO)[C@@H](CO)C2)c(F)c(N)c2c(=O)c(C(=O)O)cn(C3CC3)c12 [drawing 381]
0.06 (≈ 0.146 µM)	0.03 (≈ 0.073 µM)	0.004 (≈ 0.00974 µM)	O=C(O)c1cn(C2CC2)c2c(Cl)c(N3C[C@@H](CO)[C@@H](CO)C3)c(F)cc2c1=O [drawing 382]
0.5 (≈ 1 µM)	0.25 (≈ 0.501 µM)	0.008 (≈ 0.016 µM)	Nc1nc(-n2cc(C(=O)O)c(=O)c3cc(F)c(N4C[C@@H](CO)[C@@H](CO)C4)c(Cl)c32)c(F)cc1F [drawing 383]
0.125 (≈ 0.308 µM)	0.015 (≈ 0.0369 µM)	0.004 (≈ 0.00984 µM)	COc1c(N2C[C@@H](CO)[C@@H](CO)C2)c(F)cc2c(=O)c(C(=O)O)cn(C3CC3)c12 [drawing 384]
0.25 (≈ 0.615 µM)	0.06 (≈ 0.148 µM)	0.008 (≈ 0.0197 µM)	COc1c(N2C[C@H](CO)[C@@H](CO)C2)c(F)cc2c(=O)c(C(=O)O)cn(C3CC3)c12 [drawing 385]
0.06 (≈ 0.154 µM)	0.015 (≈ 0.0384 µM)	0.001 (≈ 0.00256 µM)	Cc1c(N2C[C@@H](CO)[C@@H](CO)C2)c(F)cc2c(=O)c(C(=O)O)cn(C3CC3)c12 [drawing 386]
0.06 (≈ 0.148 µM)	0.015 (≈ 0.0371 µM)	0.008 (≈ 0.0198 µM)	COC[C@H]1CN(c2c(F)cc3c(=O)c(C(=O)O)cn(C4CC4)c3c2C)C[C@H]1CO [drawing 387]
2 (≈ 4.78 µM)	0.125 (≈ 0.299 µM)	0.25 (≈ 0.597 µM)	COC[C@@H]1CN(c2c(F)cc3c(=O)c(C(=O)O)cn(C4CC4)c3c2C)C[C@@H]1COC [drawing 388]
